This is an account of results in paper PMC5109658, “Antibacterial and cytotoxic cytochalasins from the endophytic fungus Phomopsis sp. harbored in Garcinia kola (Heckel) nut” (BMC Complementary and Alternative Medicine, 2016).

One may read the MBC as the smallest concentration meeting the test's criterion for killing. The low end stands for greater bactericidal potency, the high end for weaker bactericidal potency. Broadly, the MIC is the least concentration at which growth counts as inhibited.

In brackets after ≈: the same amount, converted by molar mass.

What all share (assay): Broth microdilution MIC/MBC
Common to all, as to assay type: cell-based, Vibrio cholerae
(In broth dilution the organism is exposed to a series of concentrations in liquid medium.)

The test system of assay [1] is V. cholerae PC2. The protocol:
(§1) A total of six bacterial strains were tested for their susceptibility to compounds and these strains were taken from our laboratory collection (kindly provided by Dr. T. Ramamurthy, NICED, Kolkata). Among the clinical strains of Vibrio cholerae used in this study, strains NB2 and SG24 and CO6 belonged to O1 and O139 serotypes, respectively. […]. The other strains used in this study were V. cholerae non-O1, non-O139 (strain PC2); […]. The American Type Culture Collection (ATCC) strain, Staphylococcus aureus ATCC 25923, was used for quality control. The bacterial strains were maintained on agar slant at 4 °C and subcultured on a fresh appropriate agar plates 24 h prior to any antibacterial test. The Mueller Hinton Agar (MHA) was used for the activation of bacteria. The Mueller Hinton Broth (MHB) and nutrient agar (Hi-Media) were used for the MIC and MBC determinations respectively.
(§2) Suspensions of bacteria were prepared in MHB from cells arrested during their logarithmic phase growth (4 h) on MHB at 37 °C. The turbidity of the microbial suspension was read spectrophotometrically at 600 nm and adjusted to an OD of 0.1 with MHB, which is equivalent to 1 × 10^8 CFU/mL. From this prepared solution, other dilutions were made with MHB to yield 1x10^6 CFU/mL.
(§3) MIC and MBC of compounds 1–3 were assessed using the broth microdilution method recommended by the National Committee for Clinical Laboratory Standards with slight modifications. Each test sample was dissolved in dimethylsulfoxide (DMSO) to give a stock solution. The 96-well round bottom sterile plates were prepared by dispensing 180 μL of the inoculated broth (1x10^6 CFU/mL) into each well. A 20 μL aliquot of the stock solution of compound was added. The concentrations of sample tested were 0.125, 0.25, 0.50, 1, 2, 4, 8, 16, 32, 64, 128, 256 and 512 μg/mL. […] Dilutions of tetracycline and ampicillin served as positive controls, while broth with 20 μL of DMSO was used as negative control. The ATCC strain Staphylococcus aureus ATCC 25923 was included for quality assurance purposes. Plates were covered and incubated for 24 h at 37 °C. After incubation, minimum inhibitory concentrations (MIC) were read visually; all wells were plated to nutrient agar (Hi-Media) and incubated. The minimal bactericidal concentration (MBC) was defined as a 99.9% reduction in CFU from the starting inoculums after 24 h incubation interval.

Assay [2] relates to V. cholerae SG24. The following applies: Vibrio cholerae. Here is the method: as §1, §2, §3
Assay [3] deals with V. cholerae CO6. Here is the method: as §1, §2, §3
The subject of assay [4] is V. cholerae NB2. The protocol:
as §1, §2, §3

As for `C=C1[C@@H](C)C2[C@H](Cc3ccccc3)NC(=O)[C@@]23C(/C=C/C[C@H](C)C[C@@](C)(O)/C=C/[C@H]3OC(C)=O)[C@@H]1O` (some centres unmarked) [Compound 2, cytochalasin H], the “Selectivity Index V. cholerae PC2” value in assay [1] (SI = LC50 on Vero cells / MIC) is reported as 0.50. Moreover, the MBC/MIC in assay [1] (V. cholerae PC2), in assay [3] (V. cholerae CO6) and in assay [4] (V. cholerae NB2) was 1 throughout. Further, the MBC was 256 µg/mL (≈ 519 µM) in assay [1] (Vibrio cholerae, V. cholerae PC2, 99.9% reduction in CFU after 24 h); over 512 µg/mL in assay [2] (99.9% reduction in CFU after 24 h); 512 µg/mL (≈ 1040 µM) in assay [3] (Vibrio cholerae, V. cholerae CO6, 99.9% reduction in CFU after 24 h); 512 µg/mL (≈ 1040 µM) in assay [4] (Vibrio cholerae, V. cholerae NB2, 99.9% reduction in CFU after 24 h). The MIC was 256 µg/mL (≈ 519 µM) in assay [1] (Vibrio cholerae, V. cholerae PC2, 24 h at 37 °C, read-out: MIC); over 512 µg/mL in assay [2] (24 h at 37 °C); 512 µg/mL (≈ 1040 µM) in assay [3] (Vibrio cholerae, V. cholerae CO6, 24 h at 37 °C); 512 µg/mL (≈ 1040 µM) in assay [4] (Vibrio cholerae, V. cholerae NB2, 24 h at 37 °C, read-out: MIC). Moreover, in assay [3] (SI = LC50 on Vero cells / MIC), the “Selectivity Index V. cholerae CO6” value came out at 0.25. In addition, in assay [4] (SI = LC50 on Vero cells / MIC), the “Selectivity Index V. cholerae NB2” value is listed as 0.25.
